Source: US9725469B2, “Amino-oxazine and amino-dihydrothiazine compounds as beta-secretase modulators and methods of use” (Amgen Inc., priority 2012, dated 2017)

Columns and labels:
Abeta 40 = experiment: In vivo inhibition of beta-secretase: Abeta 40 reduction in rat CSF and brain; settings: after 4 hrs; for % reduction of rat CSF Abeta 40 levels at 10 mpk: Abeta 40, rat CSF; for % reduction of rat brain levels at 10 mpk: Abeta 40, rat brain
Excerpt: In Vivo Inhibition of Beta-Secretase
Several animal models, including mouse, rat, dog, and monkey, may be used to screen for inhibition of beta-secretase activity in vivo following administration of a test compound sample. Animals used in this invention can be wild type, transgenic, or gene knockout animals. For example, the Tg2576 mouse model, prepared and conducted as described in Hsiao et al., 1996, Science 274, 99-102, and other non-transgenic or gene knockout animals are useful to analyze in vivo inhibition of Amyloid beta peptide (Abeta) production in the presence of inhibitory test compounds. Generally, 2 to 18 month old Tg2576 mice, gene knockout mice or non-transgenic animals are administered test compounds formulated in vehicles, such as cyclodextran, phosphate buffers, hydroxypropyl methylcellulose or other suitable vehicles. One to twenty-four hours following the administration of compound, animals are sacrificed, and brains as well as cerebrospinal fluid (CSF) and plasma are removed for analysis of A-beta levels and drug or test compound concentrations (Dovey et al., 2001, Journal of Neurochemistry, 76, 173-181) Beginning at time 0, animals are administered by oral gavage, or other means of delivery such as intravenous injection, an inhibitory test compound of up to 100 mg/kg in a standard, conventional formulation, such as 2% hydroxypropyl methylcellulose, 1% Tween80. A separate group of animals receive 2% hydroxypropyl methylcellulose, 1% Tween80 alone, containing no test compound, and serve as a vehicle-control group. At the end of the test period, animals are sacrificed and brain tissues, plasma or cerebrospinal fluid are collected. Brains are either homogenized in 10 volumes (w/v) of 0.2% diethylamine (DEA) in 50 mM NaCl (Best et al., 2005, Journal of Pharmacology and Experimental Therapeutics, 313, 902-908), or in 10 volumes of 0.5% TritonX-100 in Tris-buffered saline (pH at about 7.6). Homogenates are centrifuged at 355,000 g, 4° C. for 30 minutes. CSF or brain supernatants are then analyzed for the presence of A-beta peptide by specific sandwich ELISA assays based on ECL (Electrochemiluminescence) technology. For example, rat Abeta40 is measured using biotinylated-4G8 (Signet) as a capture antibody and Fab40 (an in-house antibody specific to the C-terminal of Abeta40) as a detection antibody. For example, 4 hours after administration of 30 mg/kg oral dose of the test compound in 2% hydroxypropyl methylcellulose, 1% Tween80 (pH2.2) to 200 g male Sprague Dawley rats, amyloid beta peptide levels are measured for reduction by X % and Y % in cerebrospinal fluid and brain, respectively, when compared to the levels measured in the vehicle-treated rats.
Actual vehicles used: Oral: 2% HPMC, 1% Tween80, pH 2.2
The compounds of the invention may be shown to reduce the formation and/or deposition of amyloid beta peptide in the cerebrospinal fluid (CSF) as well as in the brain of a mouse or rat at either 3 mpk, 10 mpk or 30 mpk (mpk=mg compound per kg weight of the animal) dosing concentrations after 4 hrs.

Cathepsin D = biological target: T1, Cathepsin D (Homo sapiens, UniProt P07339); experiment: In vitro enzymatic Cat D (Cathepsin D) FRET assay; assay type: biochemical; settings: average IC50, pH 3.5
T1 construct: made in house; host or cells: CHO cells
T1 sequence (P07339 65-412, species assumed): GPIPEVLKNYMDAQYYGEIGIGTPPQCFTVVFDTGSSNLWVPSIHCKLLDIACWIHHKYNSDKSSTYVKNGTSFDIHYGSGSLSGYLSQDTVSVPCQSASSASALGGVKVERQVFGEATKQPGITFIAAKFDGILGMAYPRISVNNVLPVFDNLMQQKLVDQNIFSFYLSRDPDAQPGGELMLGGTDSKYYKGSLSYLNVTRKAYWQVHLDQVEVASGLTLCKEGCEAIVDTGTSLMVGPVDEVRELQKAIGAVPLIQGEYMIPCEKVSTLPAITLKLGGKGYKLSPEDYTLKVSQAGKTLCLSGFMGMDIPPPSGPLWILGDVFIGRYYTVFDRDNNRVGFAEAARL
Procedure: In Vitro Enzymatic Cat D (Cathepsin D) FRET (Fluorescence Resonance Energy Transfer) Assay
Recombinant CathepsinD was expressed in CHO cells. The assay buffer for CathepsinD is 0.05 M citrate pH 3.5, 10% DMSO final, 5 mM CHAPS. The CathepsinD enzyme (9 nM) is pre-incubated for one hour with inhibitors, typically in about 1 uL of DMSO according to a serial dilution, is added thereto. The assays are effectively started by the addition of different FRET substrates (20 nM for CathepsinD) and the combination is incubated for one hour. The FRET assay is terminated with by addition of Tris buffer, which raises the pH to neutrality, and the fluorescence is determined. The FRET substrate is a peptide with commercially available fluorophore and quencher, on opposite sides of the BACE cleavage site. The CathepsinD substrate peptide sequence is based on sequence #1 of Table 1 from Gulnik et al. FEBS Letters v413 p 379-384 1997. Proteolytic cleavage of the FRET substrate releases quenching of fluorescence (CathepsinD excitation 500 nm and emission 580 nm). […]

[1] = biological target: BACE 1 (beta secretase enzyme) (Homo sapiens, UniProt P56817); experiment: In vitro enzymatic BACE FRET assay; assay type: biochemical; settings: average IC50, pH 4.2
Sequence of BACE 1 (beta secretase enzyme) (P56817 46-501): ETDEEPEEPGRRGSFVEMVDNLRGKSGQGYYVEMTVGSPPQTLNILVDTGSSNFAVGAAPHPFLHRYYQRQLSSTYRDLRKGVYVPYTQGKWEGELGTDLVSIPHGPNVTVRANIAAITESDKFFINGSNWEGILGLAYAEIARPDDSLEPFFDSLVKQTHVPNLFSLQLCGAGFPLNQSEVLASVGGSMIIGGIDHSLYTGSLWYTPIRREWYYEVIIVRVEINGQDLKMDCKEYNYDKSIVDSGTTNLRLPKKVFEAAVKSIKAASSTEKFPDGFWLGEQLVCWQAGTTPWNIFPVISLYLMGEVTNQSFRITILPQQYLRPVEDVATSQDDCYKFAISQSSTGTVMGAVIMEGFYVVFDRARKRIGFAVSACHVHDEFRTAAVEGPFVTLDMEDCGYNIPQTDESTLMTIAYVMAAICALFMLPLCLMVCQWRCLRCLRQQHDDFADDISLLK
Procedure: In Vitro Enzymatic BACE FRET (Fluorescence Resonance Energy Transfer) Assay
The assay buffer used in this screen is 0.05 M acetate, pH 4.2, 10% DMSO final, 100 uM genapol (which is a nonionic detergent, below its Critical Micelle Concentration). The beta secretase enzyme (0.2 nM) is pre-incubated for one hour with inhibitors, typically in about 1 uL of DMSO according to a serial dilution, are added thereto. This assay is effectively started by the addition of FRET substrate (50 nM) and the combination is incubated for one hour. The FRET assay is terminated with by addition of Tris buffer, which raises the pH to neutrality, and the fluorescence is determined. The FRET substrate is a peptide with commercially available fluorophore and quencher, on opposite sides of the BACE cleavage site. Proteolytic cleavage of the FRET substrate releases quenching of fluorescence (excitation […] and […]).

[2] = test system: Aβ40 in conditioned medium of cells stably expressing Amyloid Precursor Protein (APP); experiment: In vitro BACE cell-based assay (HEK cell assay, Aβ40 sandwich ELISA); settings: Homo sapiens, HEK293; average IC50, Aβ40, 24 h incubation
Procedure: In Vitro BACE Cell-Based Assay
The cell-based assay measures inhibition or reduction of Aβ40 in conditioned medium of test compound treated cells expressing amyloid precursor protein.
Cells stably expressing Amyloid Precursor Protein (APP) were plated at a density of 40K cells/well in 96 well plates (Costar). The cells were cultivated for 24 hours at 37° C. and 5% CO2 in DMEM supplemented with 10% FBS. The test compounds were then added to cells in 10-point dose response concentrations with the starting concentration being either 100 μM or 10 μM. The compounds were diluted from stock solutions in DMSO and the final DMSO concentration of the test compounds on cells was 0.1%. After 24 h of incubation with the test compounds the supernatant conditioned media was collected and the Aβ 40 levels were determined using a sandwich ELISA. The IC50 of the compound was calculated from the percent of control or percent inhibition of Aβ 40 as a function of the concentration of the test compound.
The sandwich ELISA to detect Aβ 40 was performed in 96 well microtiter plates, which were pre-treated with goat anti-rabbit IgG (Pierce). The capture and detecting antibody pair that were used to detect Aβ 40 from cell supernatants were affinity purified pAb40 (Biosource) and biotinylated 6E10 (Signet Labs Inc.), respectively. The optimal concentration for the pAb40 antibody was 3 μg/ml in Superblock/TBS (Pierce) that was supplemented with 0.05% Tween 20 (Sigma). Optimal concentration for the detection antibody 6E10-biotinylated was 0.5 μg/ml in Superblock/TBS (Pierce) that had been supplemented with 2% normal goat serum and 2% normal mouse serum.
Cellular supernatants were incubated with the capture antibody for 3 h at 4° C., followed by 3 wash steps in TBS-tween (0.05%). The detecting antibody incubation was for 2 h at 4° C., again followed by the wash steps as described previously. The final readout of the ELISA is Time-Resolved Fluorescence (counts per minute) using Delfia reagents Streptavidin-Europium and Enhancement solutions (Perkin Elmer) and the Victor 2 multilabel counter (Perkin Elmer).

[3] = test system: pigment epithelium of the rat's eye; settings: higher compound dose given for three months; cited from earlier work
[4] = people of the terminated Ph I dosing trial; cited from earlier work
beta amyloid = settings: patients in early stages of Alzheimer's Disease; cited from earlier work

IC50 (Cathepsin D) | IC50 [1] | IC50 [2] | Molecule | % reduction of rat CSF Abeta 40 levels at 10 mpk (Abeta 40) | % reduction of rat brain levels at 10 mpk (Abeta 40) | eye toxicity finding in rat [3] | eye assessments in people [4] | slowing of the rate of cognitive decline and memory loss (beta amyloid)
546000 nM | 17.8 nM | 3.8 nM | C=C(C)c1cc2c(cn1)Oc1ccc(Nc3nccc4cc(OC)cnc34)cc1[C@@]21CCOC(N)=N1 [Example 37, (5S)-N~7~-(3-methoxy-1,7-naphthyridin-8-yl)-3-(1-methylethenyl)-5′,6′-dihydrospiro[chromeno[2,3-c]pyridine-5,4′-[l,3]oxazine]-2′,7-diamine] | 38% | 32% |  |  | 
400000 nM | 17.9 nM | 2 nM | COc1cnc2c(Nc3ccc4c(c3)[C@@]3(CCOC(N)=N3)c3cc(C5CC5)ncc3O4)nccc2c1 [Example 38] | 39% | 25% |  |  | 
 |  |  | C[C@@]1(c2cc(-c3cncnc3)c(F)cc2F)CCSC(N)=N1 [LY 2811376] |  |  | damaged the pigment epithelium of the rat's eye | did not show any abnormalities | 
 |  |  | Solanezumab: a monoclonal antibody which targets and binds to the central region of beta amyloid; Phase III clinical molecule |  |  |  |  | approximately 30%
